ChEMBL document CHEMBL1201862, “PubChem BioAssay data set” (2004)
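The compound was tested at five concentrations on cells cultured in 96-well plates, with a 48-hour exposure period. GI50: concentration for 50% inhibition of growth.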 The source made the active and inactive calls. Rule as the data show it: active = GI50 up to about 1.1 µM and inactive = higher.

What was measured:
Assay in all cases: NCI-60 cell line screen, 48 h
786-0 = test system: 786-0
A498 = test system: A498
A549 = test system: A549
ACHN = test system: ACHN
BT-549 = test system: BT-549
CAKI-1 = test system: CAKI-1
CCRF-CEM = test system: CCRF-CEM
COLO 205 = test system: COLO 205
DU-145 = test system: DU-145
EKVX = test system: EKVX
HCT-116 = test system: HCT-116
HCT-15 = test system: HCT-15
HL-60 = test system: HL-60
HOP-62 = test system: HOP-62
HOP-92 = test system: HOP-92
HT-29 = test system: HT-29
Hs-578T = test system: Hs-578T
IGROV-1 = test system: IGROV-1
K562 = test system: K562
KM12 = test system: KM12
LOX IMVI = test system: LOX IMVI
M14 = test system: M14
MDA-MB-231 = test system: MDA-MB-231
MDA-MB-435 = test system: MDA-MB-435
MDA-N = test system: MDA-N
MOLT-4 = test system: MOLT-4
Malme-3M = test system: Malme-3M
NCI-H226 = test system: NCI-H226
NCI-H23 = test system: NCI-H23
NCI-H460 = test system: NCI-H460
NCI-H522 = test system: NCI-H522
NCI/ADR-RES = test system: NCI/ADR-RES
OVCAR-3 = test system: OVCAR-3
OVCAR-5 = test system: OVCAR-5
OVCAR-8 = test system: OVCAR-8
PC-3 = test system: PC-3
RPMI-8226 = test system: RPMI-8226
RXF 393 = test system: RXF 393
SF-268 = test system: SF-268
SF-295 = test system: SF-295
SF-539 = test system: SF-539
SK-MEL-28 = test system: SK-MEL-28
SK-MEL-2 = test system: SK-MEL-2
SK-MEL-5 = test system: SK-MEL-5
SK-OV-3 = test system: SK-OV-3
SN12C = test system: SN12C
SNB-19 = test system: SNB-19
SNB-75 = test system: SNB-75
SW-620 = test system: SW-620
T47D = test system: T47D
TK-10 = test system: TK-10
U-251 = test system: U-251
UACC-257 = test system: UACC-257
UACC-62 = test system: UACC-62
UO-31 = test system: UO-31

With C=CCCON(C(=O)OC(C)(C)C)c1ccccc1 the GI50 (786-0) was 74 µM (inactive), the GI50 (A498) was > 100 µM (inactive) and the GI50 (A549) was > 100 µM (inactive). For the same compound, the GI50 (ACHN) was > 100 µM (inactive), the GI50 (BT-549) was > 100 µM (inactive) and the GI50 (CAKI-1) was > 100 µM (inactive). The GI50 (CCRF-CEM) was 12.2 µM (inactive), the GI50 (COLO 205) was > 100 µM (inactive) and the GI50 (DU-145) was > 100 µM (inactive). The GI50 (EKVX) was > 100 µM (inactive), the GI50 (HCT-116) was 44.6 µM (inactive) and the GI50 (HCT-15) was over 100 µM. For the same compound, the GI50 (HL-60) was 12.4 µM (inactive), the GI50 (HOP-62) was > 100 µM (inactive) and the GI50 (HOP-92) was > 100 µM (inactive). The GI50 (HT-29) was 47.9 µM (inactive), the GI50 (Hs-578T) was > 100 µM (inactive) and the GI50 (IGROV-1) was > 100 µM (inactive). For the same compound, the GI50 (K562) was > 100 µM (inactive), the GI50 (KM12) was > 100 µM (inactive) and the GI50 (LOX IMVI) was > 100 µM (inactive). For the same compound, the GI50 (M14) was > 100 µM (inactive), the GI50 (MDA-MB-231) was > 100 µM (inactive) and the GI50 (MDA-MB-435) was > 100 µM (inactive). The GI50 (MDA-N) was > 100 µM (inactive), the GI50 (MOLT-4) was 42.6 µM (inactive) and the GI50 (Malme-3M) was 20 µM (inactive). For the same compound, the GI50 (NCI-H226) was > 100 µM (inactive), the GI50 (NCI-H23) was > 100 µM (inactive) and the GI50 (NCI-H460) was > 100 µM (inactive). For the same compound, the GI50 (NCI-H522) was 43.3 µM (inactive), the GI50 (NCI/ADR-RES) was 67 µM (inactive) and the GI50 (OVCAR-3) was > 100 µM (inactive). The GI50 (OVCAR-5) was > 100 µM (inactive), the GI50 (OVCAR-8) was > 100 µM (inactive) and the GI50 (PC-3) was 4.12 µM (inactive). For the same compound, the GI50 (RPMI-8226) was 6.44 µM (inactive), the GI50 (RXF 393) was > 100 µM (inactive) and the GI50 (SF-268) was > 100 µM (inactive). For the same compound, the GI50 (SF-295) was > 100 µM (inactive), the GI50 (SF-539) was > 100 µM (inactive) and the GI50 (SK-MEL-28) was > 100 µM (inactive). For the same compound, the GI50 (SK-MEL-2) was > 100 µM (inactive), the GI50 (SK-MEL-5) was > 100 µM (inactive) and the GI50 (SK-OV-3) was > 100 µM (inactive). For the same compound, the GI50 (SN12C) was > 100 µM (inactive), the GI50 (SNB-19) was > 100 µM (inactive) and the GI50 (SNB-75) was 82.6 µM (inactive). The GI50 (SW-620) was > 100 µM (inactive), the GI50 (T47D) was 95.1 µM (inactive) and the GI50 (TK-10) was > 100 µM (inactive). For the same compound, the GI50 (U-251) was > 100 µM (inactive), the GI50 (UACC-257) was > 100 µM (inactive) and the GI50 (UACC-62) was > 100 µM (inactive). For the same compound, the GI50 (UO-31) was > 100 µM (inactive).
